Patent US20250163038A1, “CBL-B MODULATORS AND USES THEREOF” (Nimbus Clio, Inc., priority 2021, published 2025)

How the values were obtained:
[1] = molecular target: T1, Recombinant human c-Cbl (aa 47-435) (Homo sapiens, UniProt P22681); test: c-Cbl Biochemical Assay (TR-FRET); conditions: hc-Cbl Biochemical Assay (TR-FRET); read-out: TR-FRET hcCbl IC50
T1 sequence (P22681 47-435): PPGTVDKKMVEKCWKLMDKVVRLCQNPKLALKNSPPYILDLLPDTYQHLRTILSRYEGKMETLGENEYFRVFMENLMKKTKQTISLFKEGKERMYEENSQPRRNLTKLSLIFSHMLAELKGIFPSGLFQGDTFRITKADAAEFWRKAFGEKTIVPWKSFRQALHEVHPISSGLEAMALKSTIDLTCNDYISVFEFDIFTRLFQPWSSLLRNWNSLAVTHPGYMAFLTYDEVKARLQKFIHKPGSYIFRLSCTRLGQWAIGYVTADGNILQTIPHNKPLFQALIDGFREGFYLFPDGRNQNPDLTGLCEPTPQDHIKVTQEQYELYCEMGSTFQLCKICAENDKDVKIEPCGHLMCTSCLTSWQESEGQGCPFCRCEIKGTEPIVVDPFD

[2] = tested on: Jurkat (clone E6-1) cells with NFAT luciferase reporter; test: Jurkat reporter assay (NFAT Luciferase); format: cell-based; conditions: Homo sapiens; Jurkat NFAT luciferase reporter cells, anti-CD3 stimulation, 6 hr; read-out: Jurkat NFAT EC50
[3] = molecular target: Recombinant human Cbl-b (aa 36-427) (Homo sapiens, UniProt Q13191); test: Cbl-b Biochemical Assay (TR-FRET); conditions: read-out: TR-FRET hCbl-b IC50
Recombinant human Cbl-b (aa 36-427), sequence (Q13191 36-427): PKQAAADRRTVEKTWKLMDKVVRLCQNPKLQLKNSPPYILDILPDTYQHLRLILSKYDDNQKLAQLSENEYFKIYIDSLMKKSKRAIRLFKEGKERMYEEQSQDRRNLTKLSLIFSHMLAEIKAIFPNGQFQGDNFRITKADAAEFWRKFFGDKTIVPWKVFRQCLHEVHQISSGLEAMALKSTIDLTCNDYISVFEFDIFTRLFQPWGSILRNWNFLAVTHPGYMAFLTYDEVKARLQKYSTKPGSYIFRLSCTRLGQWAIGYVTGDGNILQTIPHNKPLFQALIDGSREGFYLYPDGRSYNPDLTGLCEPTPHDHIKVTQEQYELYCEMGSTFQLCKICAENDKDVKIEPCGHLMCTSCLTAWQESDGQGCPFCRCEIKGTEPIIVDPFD

| SMILES | IC50 [1] [nM] | EC50 [2] [nM] | IC50 [3] [nM] |
| --- | --- | --- | --- |
| C[C@H]1CCCN(Cc2ccc3oc(-c4cc(-c5ccc(C#N)cc5-c5nncn5C)cc(C5CC5)n4)nc3c2)C1 [AGG-2, 4-[2-Cyclopropyl-6-(5-{[(3S)-3-methylpiperidin-1-yl]methyl}-1,3-benzoxazol-2-yl)pyridin-4-yl]-3-(4-methyl-1,2,4-triazol-3-yl)benzonitrile] | 200 to 1000 | 200 to 1000 | < 200 |
| C[C@H]1CCCN(Cc2cc(F)c3oc(-c4cc(-c5ccc(C#N)cc5-c5nncn5C)cc(C5CC5)n4)nc3c2)C1 [AGI-1, 4-[2-Cyclopropyl-6-(7-fluoro-5-{[(3S)-3-methylpiperidin-1-yl]methyl}-1,3-benzoxazol-2-yl)pyridin-4-yl]-3-(4-methyl-1,2,4-triazol-3-yl)benzonitrile] | < 200 | < 200 | < 200 |
| COCC(C)(C)NCc1cc(C)c2oc(-c3cc(-c4ccc(F)cc4-c4nncn4C)cc(C4CC4)n3)nc2c1 [AGJ-1, [(2-{6-Cyclopropyl-4-[4-fluoro-2-(4-methyl-1,2,4-triazol-3-yl)phenyl]pyridin-2-yl}-7-methyl-1,3-benzoxazol-5-yl)methyl](1-methoxy-2-methylpropan-2-yl)amine] | 1000 to 10000 | 200 to 1000 | < 200 |
| COC[C@@H](C)NCc1cc(C)c2oc(-c3cc(-c4ccc(F)cc4-c4nncn4C)cc(C4CC4)n3)nc2c1 [AGL-1, [(2-{6-Cyclopropyl-4-[4-fluoro-2-(4-methyl-1,2,4-triazol-3-yl)phenyl]pyridin-2-yl}-7-methyl-1,3-benzoxazol-5-yl)methyl][(2R)-1-methoxypropan-2-yl]amine] | 200 to 1000 | 200 to 1000 | < 200 |
| COC(=O)C1(c2cc(F)c3oc(-c4cc(-c5ccc(F)cc5-c5nncn5C)cc(C5CC5)n4)nc3c2)CC1 [AGM-8, Methyl 1-(2-{6-cyclopropyl-4-[4-fluoro-2-(4-methyl-1,2,4-triazol-3-yl)phenyl]pyridin-2-yl}-7-fluoro-1,3-benzoxazol-5-yl) cyclopropane-1-carboxylate] | 1000 to 10000 | 1000 to 10000 | 200 to 1000 |
| Cn1cnnc1-c1cc(F)ccc1-c1cc(-c2nc3cc(C4(N)CC4)cc(F)c3o2)nc(C2CC2)c1 [AGN-3, 1-(2-{6-Cyclopropyl-4-[4-fluoro-2-(4-methyl-1,2,4-triazol-3-yl)phenyl]pyridin-2-yl}-7-fluoro-1,3-benzoxazol-5-yl) cyclopropan-1-amine] | 200 to 1000 | 1000 to 10000 | < 200 |
| COC1(CNC2(c3cc(F)c4oc(-c5cc(-c6ccc(F)cc6-c6nncn6C)cc(C6CC6)n5)nc4c3)CC2)CCC1 [AGO-2, 1-(2-{6-Cyclopropyl-4-[4-fluoro-2-(4-methyl-1,2,4-triazol-3-yl)phenyl]pyridin-2-yl}-7-fluoro-1,3-benzoxazol-5-yl)-N-[(1-methoxycyclobutyl)methyl]cyclopropan-1-amine] | 200 to 1000 | 200 to 1000 | < 200 |
| Cc1c(F)c(CO)cc2nc(-c3cc(-c4ccc(F)cc4-c4nncn4C)cc(C4CC4)n3)oc12 [AGP-7, (2-{6-Cyclopropyl-4-[4-fluoro-2-(4-methyl-1,2,4-triazol-3-yl)phenyl]pyridin-2-yl}-6-fluoro-7-methyl-1,3-benzoxazol-5-yl)methanol] | 1000 to 10000 | 1000 to 10000 | 200 to 1000 |
| Cc1cc(C(C)(C)N)cc2nc(-c3cc(-c4ccc(F)cc4-c4nncn4C)cc(C4CC4)n3)oc12 [AGR-9, 2-(2-{6-Cyclopropyl-4-[4-fluoro-2-(4-methyl-1,2,4-triazol-3-yl)phenyl]pyridin-2-yl}-7-methyl-1,3-benzoxazol-5-yl)propan-2-amine] | 1000 to 10000 | 1000 to 10000 | 200 to 1000 |
| CCNCc1cc2nc(-c3cc(-c4ccc(F)cc4-c4nncn4C)cc(C4CC4)n3)oc2c(F)c1F [AGZ-2, [(2-{6-cyclopropyl-4-[4-fluoro-2-(4-methyl-1,2,4-triazol-3-yl)phenyl]pyridin-2-yl}-6,7-difluoro-1,3-benzoxazol-5-yl)methyl](ethyl)amine] | 200 to 1000 | 200 to 1000 | < 200 |
| Cn1cnnc1-c1cc(F)ccc1-c1cccc(-c2nc3cc(CNCC4(O)CC4)cc(C(F)(F)F)c3o2)c1 [AH-2, 1-((((2-(4′-Fluoro-2′-(4-methyl-4H-1,2,4-triazol-3-yl)-[1,1′-biphenyl]-3-yl)-7-(trifluoromethyl)benzo[d]oxazol-5-yl)methyl)amino)methyl)cyclopropan-1-ol] | 1000 to 10000 | 200 to 1000 | < 200 |
| CNCc1cc2nc(-c3cc(-c4ccc(F)cc4-c4nncn4C)cc(C4CC4)n3)oc2c(F)c1F [AHA-2, [(2-{6-cyclopropyl-4-[4-fluoro-2-(4-methyl-1,2,4-triazol-3-yl)phenyl]pyridin-2-yl}-6,7-difluoro-1,3-benzoxazol-5-yl)methyl](methyl)amine] | 200 to 1000 | 1000 to 10000 | < 200 |

Second part, the molecule after the results:

| IC50 [1] [nM] | EC50 [2] [nM] | IC50 [3] [nM] | SMILES |
| --- | --- | --- | --- |
| < 200 | < 200 | < 200 | Cn1cnnc1-c1cc(F)ccc1-c1cc(-c2nc3cc(CNCC(C)(C)O)c(F)c(F)c3o2)nc(C2CC2)c1 [AGF-1, 1-{[(2-{6-Cyclopropyl-4-[4-fluoro-2-(4-methyl-1,2,4-triazol-3-yl)phenyl]pyridin-2-yl}-6,7-difluoro-1,3-benzoxazol-5-yl)methyl]amino}-2-methylpropan-2-ol] |
| 200 to 1000 | 1000 to 10000 | 200 to 1000 | Cn1cnnc1-c1cc(C#N)ccc1-c1cc(-c2nc3cc(CN4C[C@@H]5C[C@H]4CO5)cc(F)c3o2)nc(C2CC2)c1 [AGH-4, 4-(2-Cyclopropyl-6-{7-fluoro-5-[(1S,4S)-2-oxa-5-azabicyclo[2.2.1]heptan-5-ylmethyl]-1,3-benzoxazol-2-yl}pyridin-4-yl)-3-(4-methyl-1,2,4-triazol-3-yl)benzonitrile] |
| < 200 | < 200 | < 200 | COC[C@H](C)NCc1cc(C)c2oc(-c3cc(-c4ccc(F)cc4-c4nncn4C)cc(C4CC4)n3)nc2c1 [AGK-1, [(2-{6-Cyclopropyl-4-[4-fluoro-2-(4-methyl-1,2,4-triazol-3-yl)phenyl]pyridin-2-yl}-7-methyl-1,3-benzoxazol-5-yl)methyl][(2S)-1-methoxypropan-2-yl]amine] |
| < 200 | < 200 | < 200 | Cc1c(F)c(CN[C@@H]2CCC[C@@H]2O)cc2nc(-c3cc(-c4ccc(F)cc4-c4nncn4C)cc(C4CC4)n3)oc12 [AGQ-2, (1S,2R)-2-{[(2-{6-Cyclopropyl-4-[4-fluoro-2-(4-methyl-1,2,4-triazol-3-yl)phenyl]pyridin-2-yl}-6-fluoro-7-methyl-1,3-benzoxazol-5-yl)methyl]amino}cyclopentan-1-ol] |
| < 200 | < 200 | < 200 | COC[C@H](C)NCc1cc(C)c2oc(-c3cccc(-c4ccc(F)cc4-c4nncn4C)c3)nc2c1 [AGS-4, ({2-[4′-Fluoro-2′-(4-methyl-1,2,4-triazol-3-yl)-[1,1′-biphenyl]-3-yl]-7-methyl-1,3-benzoxazol-5-yl}methyl)[(2S)-1-methoxypropan-2-yl]amine] |
| < 200 | < 200 | < 200 | Cn1cnnc1-c1cc(F)ccc1-c1cc(-c2nc3cc(CNCC4CCC4)cc(F)c3o2)nc(C2CC2)c1 [AGT-1, (Cyclobutylmethyl)[(2-{6-cyclopropyl-4-[4-fluoro-2-(4-methyl-1,2,4-triazol-3-yl)phenyl]pyridin-2-yl}-7-fluoro-1,3-benzoxazol-5-yl)methyl]amine] |
| < 200 | < 200 | < 200 | Cc1cc(C(C)NCC2CCC2)cc2nc(-c3cc(-c4ccc(F)cc4-c4nncn4C)cc(C4CC4)n3)oc12 (stereo not drawn) [AGU-1, (cyclobutylmethyl)[1-(2-{6-cyclopropyl-4-[4-fluoro-2-(4-methyl-1,2,4-triazol-3-yl)phenyl]pyridin-2-yl}-7-methyl-1,3-benzoxazol-5-yl)ethyl]amine] |
| < 200 | < 200 | < 200 | Cc1cc([C@H](C)NCC2CCC2)cc2nc(-c3cc(-c4ccc(F)cc4-c4nncn4C)cc(C4CC4)n3)oc12 [AGX-1, (cyclobutylmethyl)[(1S)-1-(2-{6-cyclopropyl-4-[4-fluoro-2-(4-methyl-1,2,4-triazol-3-yl)phenyl]pyridin-2-yl}-7-methyl-1,3-benzoxazol-5-yl)ethyl]amine] |
| < 200 | < 200 | < 200 | Cc1cc([C@@H](C)NCC2CCC2)cc2nc(-c3cc(-c4ccc(F)cc4-c4nncn4C)cc(C4CC4)n3)oc12 [AGY-1, (cyclobutylmethyl)[(1R)-1-(2-{6-cyclopropyl-4-[4-fluoro-2-(4-methyl-1,2,4-triazol-3-yl)phenyl]pyridin-2-yl}-7-methyl-1,3-benzoxazol-5-yl)ethyl]amine] |
| < 200 | < 200 | < 200 | COCCNCc1cc(F)c2oc(-c3cc(-c4ccc(F)cc4-c4nncn4C)cc(C4CC4)n3)nc2c1 [AHB-1, [(2-{6-cyclopropyl-4-[4-fluoro-2-(4-methyl-1,2,4-triazol-3-yl)phenyl]pyridin-2-yl}-7-fluoro-1,3-benzoxazol-5-yl)methyl](2-methoxyethyl)amine] |
